Experimental data reported in ChEMBL document CHEMBL1681651, “A broad spectrum anticancer nucleoside with selective toxicity against human colon cells in vitro” (2011).

How the values were obtained:
Assay type in all cases: functional
[1] = system: HOP-62; experiment: Growth inhibition of human HOP62 cells assessed as cell growth at 10 uM after 48 hrs by SRB assay; details: HOP-62, 48 h, read-out: Activity
[2] = system: SF-268; experiment: Growth inhibition of human SF268 cells assessed as cell growth at 100 uM after 48 hrs by SRB assay; details: SF-268, 48 h, read-out: Activity
[3] = system: ACHN; experiment: Growth inhibition of human ACHN cells assessed as cell growth at 1 mM after 48 hrs by SRB assay; details: read-out: Activity
[4] = system: ACHN; experiment: Growth inhibition of human ACHN cells assessed as cell growth at 100 uM after 48 hrs by SRB assay; details: read-out: Activity
[5] = system: SF-295; experiment: Growth inhibition of human SF295 cells after 48 hrs by […] growth inhibition assay; details: SF-295, 48 h
[6] = system: SK-OV-3; experiment: Growth inhibition of human SKOV3 cells assessed as cell growth at 10 uM after 48 hrs by SRB assay; details: SK-OV-3, 48 h, read-out: Activity
[7] = system: Malme-3M; experiment: Growth inhibition of human MALME-3M cells after 48 hrs by […] growth inhibition assay
[8] = system: SN12C; experiment: Growth inhibition of human SN12C cells assessed as cell growth at 1 mM after 48 hrs by SRB assay; details: read-out: Activity
[9] = system: ACHN; experiment: Growth inhibition of human ACHN cells assessed as cell growth at 1 uM after 48 hrs by SRB assay; details: read-out: Activity
[10] = system: HCC 2998; experiment: Growth inhibition of human HCC2998 cells assessed as cell growth at 1 mM after 48 hrs by SRB assay; details: HCC 2998, 48 h, read-out: Activity
[11] = system: HCC 2998; experiment: Growth inhibition of human HCC2998 cells assessed as cell growth at 10 uM after 48 hrs by SRB assay; details: HCC 2998, 48 h, read-out: Activity
[12] = system: OVCAR-8; experiment: Growth inhibition of human OVCAR8 cells assessed as cell growth at 0.1 uM after 48 hrs by SRB assay; details: OVCAR-8, 48 h, read-out: Activity
[13] = system: UO-31; experiment: Growth inhibition of human UO31 cells assessed as cell growth at 1 mM after 48 hrs by SRB assay; details: UO-31, 48 h, read-out: Activity
[14] = system: HOP-92; experiment: Growth inhibition of human HOP92 cells assessed as cell growth at 0.1 uM after 48 hrs by SRB assay; details: HOP-92, 48 h, read-out: Activity
[15] = system: SK-MEL-5; experiment: Growth inhibition of human SK-MEL-5 cells assessed as cell growth at 100 uM after 48 hrs by SRB assay; details: SK-MEL-5, 48 h, read-out: Activity
[16] = system: LOX IMVI; experiment: Growth inhibition of human LOXIMVI cells assessed as cell growth at 1 mM after 48 hrs by SRB assay; details: read-out: Activity
[17] = system: NCI/ADR-RES; experiment: Growth inhibition of human NCI/ADR-RES cells assessed as cell growth at 10 uM after 48 hrs by SRB assay; details: read-out: Activity
[18] = system: HT-29; experiment: Growth inhibition of human HT-29 cells assessed as cell growth at 10 uM after 48 hrs by SRB assay; details: HT-29, 48 h, read-out: Activity
[19] = system: MDA-MB-435; experiment: Growth inhibition of human MDA-MB-435 cells assessed as cell growth at 1 uM after 48 hrs by SRB assay; details: MDA-MB-435, 48 h, read-out: Activity
[20] = system: OVCAR-8; experiment: Growth inhibition of human OVCAR8 cells after 48 hrs by […] growth inhibition assay; details: OVCAR-8, 48 h
[21] = system: NCI-H522; experiment: Growth inhibition of human NCI-H522 cells assessed as cell growth at 10 uM after 48 hrs by SRB assay; details: NCI-H522, 48 h, read-out: Activity
[22] = system: UO-31; experiment: Growth inhibition of human UO31 cells assessed as cell growth at 0.1 uM after 48 hrs by SRB assay; details: UO-31, 48 h, read-out: Activity
[23] = Growth inhibition of human […] cells after 48 hrs by […] growth inhibition assay
[24] = system: U-251; experiment: Growth inhibition of human U251 cells assessed as cell growth at 1 uM after 48 hrs by SRB assay; details: U-251, 48 h, read-out: Activity
[25] = system: RXF 393; experiment: Growth inhibition of human RXF393 cells assessed as cell growth at 1 uM after 48 hrs by SRB assay; details: RXF 393, 48 h, read-out: Activity
[26] = system: MDA-MB-435; experiment: Growth inhibition of human MDA-MB-435 cells assessed as cell growth at 10 uM after 48 hrs by SRB assay; details: MDA-MB-435, 48 h, read-out: Activity
[27] = system: NCI/ADR-RES; experiment: Growth inhibition of human NCI/ADR-RES cells after 48 hrs by SRB assay
[28] = system: SK-OV-3; experiment: Growth inhibition of human SKOV3 cells assessed as cell growth at 1 uM after 48 hrs by SRB assay; details: SK-OV-3, 48 h, read-out: Activity
[29] = system: SK-MEL-5; experiment: Growth inhibition of human SK-MEL-5 cells assessed as cell growth at 1 uM after 48 hrs by SRB assay; details: SK-MEL-5, 48 h, read-out: Activity
[30] = system: SNB-19; experiment: Growth inhibition of human SNB19 cells assessed as cell growth at 0.1 uM after 48 hrs by SRB assay; details: SNB-19, 48 h, read-out: Activity
[31] = system: IGROV-1; experiment: Growth inhibition of human IGROV1 cells assessed as cell growth at 1 mM after 48 hrs by SRB assay; details: IGROV-1, 48 h, read-out: Activity
[32] = system: UACC-257; experiment: Growth inhibition of human UACC257 cells assessed as cell growth at 1 uM after 48 hrs by SRB assay; details: UACC-257, 48 h, read-out: Activity
[33] = system: SNB-19; experiment: Growth inhibition of human SNB19 cells assessed as cell growth at 10 uM after 48 hrs by SRB assay; details: SNB-19, 48 h, read-out: Activity
[34] = system: KM12; experiment: Growth inhibition of human KM12 cells assessed as cell growth at 1 mM after 48 hrs by SRB assay; details: KM12, 48 h, read-out: Activity
[35] = system: MDA-MB-435; experiment: Growth inhibition of human MDA-MB-435 cells after 48 hrs by SRB assay; details: MDA-MB-435, 48 h
[36] = read-out: LC50 (the source's name)
[37] = read-out: pLC50 (the source's name) (converted)

Work on `CNC(=O)NC[C@H]1O[C@@H](n2cnc3c(NC(=O)Nc4ccccc4)ncnc32)[C@H](O[Si](C)(C)C(C)(C)C)[C@@H]1O[Si](C)(C)C(C)(C)C` yielded a growth at 10 µM [1] of 105%, a growth at 100 µM [2] of 8% and a growth at 1000 µM [3] of 2%. For the same compound, the growth at 100 µM [4] was 10%, the GI50 ([5]; read-out: GI50) was 3.84 µM and the LC50 ([5]; read-out: LC50) was > 100 µM. For the same compound, the TGI ([5]; read-out: TGI) was 31.8 µM, the GI50 ([5]; read-out: pGI50 (converted)) was 3.8 µM and the LC50 ([5]; read-out: pLC50 (converted)) was > 100 µM. The TGI ([5]; read-out: pTGI (converted)) was 31.6 µM, the growth at 10 µM [6] was 107% and the GI50 ([7]; read-out: GI50) was 2.98 µM. The LC50 (concentration killing 50% of cells) ([7]; read-out: LC50) was > 100 µM, the TGI ([7]; read-out: TGI) was 9.84 µM and the GI50 ([7]; read-out: pGI50 (converted)) was 2.95 µM. For the same compound, the LC50 (concentration killing 50% of cells) ([7]; read-out: pLC50 (converted)) was > 100 µM, the TGI ([7]; read-out: pTGI (converted)) was 9.77 µM and the growth at 1000 µM [8] was -90%. For the same compound, the growth at 1 µM [9] was 108%, the growth at 1000 µM [10] was -91% and the growth at 10 µM [11] was 106%. For the same compound, the growth at 0.1 µM [12] was 108%, the growth at 1000 µM [13] was -21% and the growth at 0.1 µM [14] was 85%. The growth at 100 µM [15] was -42%, the growth at 1000 µM [16] was -77% and the growth at 10 µM [17] was 103%. It also gave a growth at 10 µM [18] of 107%, a growth at 1 µM [19] of 102% and a GI50 ([20]; read-out: GI50) of 4.01 µM. For the same compound, the CC50 [20, 36] was > 100 µM, the TGI ([20]; read-out: TGI) was 40.1 µM and the GI50 ([20]; read-out: pGI50 (converted)) was 3.98 µM. The CC50 [20, 37] was > 100 µM, the TGI ([20]; read-out: pTGI (converted)) was 39.8 µM and the growth at 10 µM [21] was 90%. For the same compound, the growth at 0.1 µM [22] was 87%, the GI50 ([23]; read-out: GI50) was 3.27 µM and the CC50 [23, 36] was > 100 µM. The TGI ([23]; read-out: TGI) was > 100 µM, the GI50 ([23]; read-out: pGI50 (converted)) was 3.31 µM and the CC50 [23, 37] was > 100 µM. For the same compound, the TGI ([23]; read-out: pTGI (converted)) was > 100 µM, the growth at 1 µM [24] was 102% and the growth at 1 µM [25] was 73%. The growth at 10 µM [26] was 97%, the GI50 ([27]; read-out: GI50) was 3.72 µM and the CC50 [27, 36] was > 100 µM. For the same compound, the TGI ([27]; read-out: TGI) was 20.7 µM, the GI50 ([27]; read-out: pGI50 (converted)) was 3.72 µM and the CC50 [27, 37] was > 100 µM. It also gave a TGI ([27]; read-out: pTGI (converted)) of 20.9 µM, a growth at 1 µM [28] of 113% and a growth at 1 µM [29] of 98%. It also gave a growth at 0.1 µM [30] of 97%, a growth at 1000 µM [31] of -39% and a growth at 1 µM [32] of 100%. The growth at 10 µM [33] was 91%, the growth at 1000 µM [34] was -74% and the GI50 ([35]; read-out: GI50) was 3.41 µM. For the same compound, the LC50 ([35]; read-out: LC50) was > 100 µM, the TGI ([35]; read-out: TGI) was 29.1 µM and the GI50 ([35]; read-out: pGI50 (converted)) was 3.39 µM. The LC50 ([35]; read-out: pLC50 (converted)) was > 100 µM and the TGI ([35]; read-out: pTGI (converted)) was 28.8 µM.
